Source: patent US12441726B2, “Compounds and uses thereof” (Foghorn Therapeutics Inc., priority 2020, dated 2025)

Tests used:
[1] = target: BRM (Homo sapiens, UniProt P51531); assay: ATPase catalytic activity assay (ADP-Glo), BRM; settings: 30 nM BRM, 400 μM ATP; for IC50: BRM ATPase: IC50 (uM)
[2] = target: BRG-1 (Homo sapiens, UniProt P51532); assay: ATPase catalytic activity assay (ADP-Glo), BRG-1; settings: for Emax: 1 h, read-out: BRG1 Max % Inhibition, ADP-Glo, 30 nM BRG-1, 400 μM ATP
BRG-1, sequence (P51532 whole entry): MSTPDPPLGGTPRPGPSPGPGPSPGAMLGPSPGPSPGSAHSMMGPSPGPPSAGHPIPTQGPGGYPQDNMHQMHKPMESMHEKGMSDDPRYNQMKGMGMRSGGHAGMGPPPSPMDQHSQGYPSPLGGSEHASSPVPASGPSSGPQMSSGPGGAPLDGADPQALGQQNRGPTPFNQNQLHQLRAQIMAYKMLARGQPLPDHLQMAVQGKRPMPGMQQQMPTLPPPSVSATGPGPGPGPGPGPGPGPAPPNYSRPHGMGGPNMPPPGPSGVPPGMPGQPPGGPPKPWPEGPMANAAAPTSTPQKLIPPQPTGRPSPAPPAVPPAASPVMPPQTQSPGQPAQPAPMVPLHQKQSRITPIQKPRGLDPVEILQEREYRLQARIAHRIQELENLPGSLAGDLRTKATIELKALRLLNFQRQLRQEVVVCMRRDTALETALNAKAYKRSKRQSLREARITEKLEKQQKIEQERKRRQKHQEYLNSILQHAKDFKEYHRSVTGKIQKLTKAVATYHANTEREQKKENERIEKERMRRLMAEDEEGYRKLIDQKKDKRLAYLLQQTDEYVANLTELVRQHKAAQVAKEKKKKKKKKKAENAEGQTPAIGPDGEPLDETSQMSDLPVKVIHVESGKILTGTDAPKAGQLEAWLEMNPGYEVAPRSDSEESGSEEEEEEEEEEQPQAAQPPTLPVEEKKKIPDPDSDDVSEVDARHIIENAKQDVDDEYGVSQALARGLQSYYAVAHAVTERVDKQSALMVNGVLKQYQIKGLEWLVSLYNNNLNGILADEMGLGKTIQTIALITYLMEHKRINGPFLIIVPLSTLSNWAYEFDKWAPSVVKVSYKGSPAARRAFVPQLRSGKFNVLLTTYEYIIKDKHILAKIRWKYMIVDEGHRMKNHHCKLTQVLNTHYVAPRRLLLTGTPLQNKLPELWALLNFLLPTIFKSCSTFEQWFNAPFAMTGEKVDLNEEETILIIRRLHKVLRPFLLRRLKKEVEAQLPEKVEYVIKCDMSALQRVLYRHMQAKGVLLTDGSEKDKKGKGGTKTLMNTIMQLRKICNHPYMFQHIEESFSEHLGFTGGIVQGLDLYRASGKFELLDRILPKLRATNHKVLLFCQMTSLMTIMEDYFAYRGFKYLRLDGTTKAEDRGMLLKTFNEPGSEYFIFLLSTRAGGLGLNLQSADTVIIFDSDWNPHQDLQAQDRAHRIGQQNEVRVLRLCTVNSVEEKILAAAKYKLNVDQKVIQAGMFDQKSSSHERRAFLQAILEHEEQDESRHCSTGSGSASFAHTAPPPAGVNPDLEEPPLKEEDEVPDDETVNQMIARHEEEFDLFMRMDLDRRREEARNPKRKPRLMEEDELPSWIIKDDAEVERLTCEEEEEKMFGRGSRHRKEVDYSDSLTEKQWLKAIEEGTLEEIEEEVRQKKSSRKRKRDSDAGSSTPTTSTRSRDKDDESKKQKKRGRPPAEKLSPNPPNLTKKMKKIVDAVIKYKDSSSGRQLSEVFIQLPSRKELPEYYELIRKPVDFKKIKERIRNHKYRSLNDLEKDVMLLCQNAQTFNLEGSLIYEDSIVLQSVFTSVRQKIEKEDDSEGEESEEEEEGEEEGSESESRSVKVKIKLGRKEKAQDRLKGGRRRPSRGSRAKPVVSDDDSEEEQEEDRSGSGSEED

BRM, sequence (P51531 whole entry): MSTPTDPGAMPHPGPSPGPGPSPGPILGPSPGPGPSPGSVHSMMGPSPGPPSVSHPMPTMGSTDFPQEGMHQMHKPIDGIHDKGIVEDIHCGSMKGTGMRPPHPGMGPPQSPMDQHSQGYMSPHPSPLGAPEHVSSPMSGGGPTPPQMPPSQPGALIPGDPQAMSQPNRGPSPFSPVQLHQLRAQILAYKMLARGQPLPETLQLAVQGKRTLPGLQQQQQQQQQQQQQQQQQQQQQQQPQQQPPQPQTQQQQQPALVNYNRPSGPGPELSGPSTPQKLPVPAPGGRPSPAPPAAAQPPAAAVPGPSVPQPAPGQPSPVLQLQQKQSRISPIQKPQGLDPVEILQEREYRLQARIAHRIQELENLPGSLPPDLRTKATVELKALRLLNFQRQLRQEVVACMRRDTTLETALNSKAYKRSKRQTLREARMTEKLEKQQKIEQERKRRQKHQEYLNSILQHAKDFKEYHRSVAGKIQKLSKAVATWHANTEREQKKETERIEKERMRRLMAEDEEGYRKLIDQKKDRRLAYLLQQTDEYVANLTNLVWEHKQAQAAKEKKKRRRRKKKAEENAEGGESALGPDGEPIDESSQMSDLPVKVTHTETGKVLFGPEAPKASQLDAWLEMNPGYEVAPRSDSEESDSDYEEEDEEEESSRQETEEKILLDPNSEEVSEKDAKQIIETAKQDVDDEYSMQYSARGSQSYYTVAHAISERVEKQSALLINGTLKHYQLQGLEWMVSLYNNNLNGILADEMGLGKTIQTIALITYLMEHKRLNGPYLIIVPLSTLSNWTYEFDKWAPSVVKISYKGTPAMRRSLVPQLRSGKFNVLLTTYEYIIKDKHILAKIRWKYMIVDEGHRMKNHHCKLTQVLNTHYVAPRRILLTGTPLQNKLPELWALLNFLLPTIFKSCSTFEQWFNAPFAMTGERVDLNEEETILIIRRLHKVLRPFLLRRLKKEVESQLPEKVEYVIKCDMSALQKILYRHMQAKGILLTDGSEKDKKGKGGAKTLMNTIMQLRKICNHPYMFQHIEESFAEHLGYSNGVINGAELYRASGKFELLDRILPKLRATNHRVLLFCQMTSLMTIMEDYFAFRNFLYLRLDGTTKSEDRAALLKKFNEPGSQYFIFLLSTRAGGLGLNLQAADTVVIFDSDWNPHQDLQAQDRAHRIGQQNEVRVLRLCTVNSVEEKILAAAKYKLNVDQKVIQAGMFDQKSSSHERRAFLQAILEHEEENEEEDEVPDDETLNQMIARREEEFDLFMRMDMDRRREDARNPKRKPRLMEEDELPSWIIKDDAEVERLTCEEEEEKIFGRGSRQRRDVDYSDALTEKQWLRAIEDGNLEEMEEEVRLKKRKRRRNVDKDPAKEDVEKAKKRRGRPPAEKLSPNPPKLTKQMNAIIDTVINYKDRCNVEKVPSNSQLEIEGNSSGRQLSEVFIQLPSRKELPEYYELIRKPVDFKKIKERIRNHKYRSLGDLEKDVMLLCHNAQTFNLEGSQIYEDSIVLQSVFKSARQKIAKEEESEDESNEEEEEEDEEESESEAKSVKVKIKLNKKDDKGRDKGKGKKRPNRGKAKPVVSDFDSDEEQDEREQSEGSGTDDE

| Structure (SMILES) | BRM Max % Inhibition [1] | IC50 [1] | IC50 [2] | Emax [2] |
| --- | --- | --- | --- | --- |
| C[C@@]1(F)COCc2ccc(C(=O)NCc3cc4nc(-c5cccc(N6CCC6)n5)ccc4cn3)cc21 [Compound 295] | 100% | < 0.1 µM | 100 to 500 nM | 93% |
| C[C@@]1(F)COCc2ncc(C(=O)NCc3cc4nc(-c5ccnc(N6CCC6)c5F)ccc4cn3)cc21 [Compound 296] | 100% | < 0.1 µM | 100 to 500 nM | 88% |
| COc1cnn(C)c1-c1ccc2cnc(CNC(=O)c3ccc4c(c3)[C@](C)(C#N)COC4)cc2n1 [Compound 297] | 96% | 0.1 to 0.5 µM | 500 to 1000 nM | 66% |
| C[C@@]1(C#N)COCc2ccc(C(=O)NCc3cc4c(cn3)CCN(c3cncc(N5CCC5)n3)C4)cc21 [Compound 298] | 99% | < 0.1 µM | 100 to 500 nM | 82% |
| CC(F)(F)c1cncc(-c2ccc3cnc(CNC(=O)c4ccc5c(c4)[C@](C)(C#N)COC5)cc3n2)n1 [Compound 299] | 99% | < 0.1 µM | 500 to 1000 nM | 78% |
| C[C@@]1(F)COCc2ccc(C(=O)NCc3cc4nc(-c5ccccc5)sc4cn3)cc21 [Compound 300] | 99% | 0.1 to 0.5 µM | 500 to 1000 nM | 63% |
| C[C@@]1(F)COCc2ncc(C(=O)NCc3cc4nc(-c5cncc(C6CC6)n5)ccc4cn3)cc21 [Compound 301] | 96% | < 0.1 µM | 100 to 500 nM | 86% |
| C[C@@]1(F)COCc2ccc(C(=O)NCc3cc4nc(-c5cccc(C6(O)CCOCC6)n5)ccc4cn3)cc21 [Compound 302] | 93% | 0.1 to 0.5 µM | 500 to 1000 nM | 58% |
| C[C@@]1(C#N)COCc2ccc(C(=O)NCc3cc4nc(N5Cc6ccccc6C5=O)ccc4cn3)cc21 [Compound 303] | 96% | 0.1 to 0.5 µM | 100 to 500 nM | 87% |
| C[C@@]1(C#N)COCc2ccc(C(=O)NCc3cc4c(cn3)CCN(c3cccc(C(F)F)n3)C4)cc21 [Compound 304] | 86% | 0.1 to 0.5 µM | > 1000 nM | 38% |
| Cn1cc(-c2ccc3cnc(CNC(=O)c4ccc5c(c4)[C@](C)(F)COC5)cc3n2)c(C#N)n1 [Compound 305] | 87% | 0.1 to 0.5 µM | > 1000 nM | 40% |
| C[C@@]1(C#N)COCc2ccc(C(=O)NCc3cc4nc(-c5ccnc(N6CC[C@@H](F)C6)n5)ccc4cn3)cc21 [Compound 306] | 99% | < 0.1 µM | 100 to 500 nM | 94% |
| C[C@@]1(F)COCc2ccc(C(=O)NCc3cc4nc(-c5ccnc(N6CC[C@H]7COC[C@@H]7C6)n5)ccc4cn3)cc21 [Compound 307] | 98% | < 0.1 µM | 100 to 500 nM | 97% |
| C[C@@]1(F)COCc2ccc(C(=O)NCc3cc4nc(-c5ccnc(N6CC[C@@H]7COC[C@H]7C6)n5)ccc4cn3)cc21 [Compound 308] | 99% | < 0.1 µM | < 100 nM | 96% |
| C[C@@]1(C#N)COCc2ccc(C(=O)NCc3cc4nc(-c5ccn6ncc(C(F)F)c6n5)ccc4cn3)cc21 [Compound 309] | 97% | < 0.1 µM | 100 to 500 nM | 82% |
| C[C@@]1(C#N)COCc2ccc(C(=O)NCc3cc4nc(-c5ccnc(N6C[C@H]7C[C@@H]6CO7)n5)ccc4cn3)cc21 [Compound 310] | 97% | < 0.1 µM | 100 to 500 nM | 84% |
| C[C@@]1(C#N)COCc2ccc(C(=O)NCc3cc4nc(-c5cncc(N6CC[C@H](F)C6)n5)ccc4cn3)cc21 [Compound 311] | 99% | < 0.1 µM | 100 to 500 nM | 95% |
| C[C@@]1(C#N)COCc2ccc(C(=O)NCc3cc4nc(N5CCN(C6CC6)C5=O)ccc4cn3)cc21 [Compound 312] | 83% | 0.1 to 0.5 µM | > 1000 nM | 46% |
| C[C@@]1(C#N)COCc2ccc(C(=O)NCc3cc4nc(N5CCN(C6CCC6)C5=O)ccc4cn3)cc21 [Compound 313] | 92% | 0.1 to 0.5 µM | 500 to 1000 nM | 72% |
| C[C@@]1(C#N)COCc2ccc(C(=O)NCc3cc4c(cn3)CCN(c3cncc(N5CCOCC5)n3)C4)cc21 [Compound 314] | 96% | < 0.1 µM | 100 to 500 nM | 83% |
| C[C@@]1(C#N)COCc2ccc(C(=O)NCc3cc4nc(N5CCCN(C6CC6)C5=O)ccc4cn3)cc21 [Compound 315] | 81% | 0.1 to 0.5 µM | > 1000 nM | 33% |

| Structure (SMILES) | BRM Max % Inhibition [1] | IC50 [1] | IC50 [2] | Emax [2] |
| --- | --- | --- | --- | --- |
| COCCOCCNC(=O)c1cccc(-c2ccc3cnc(CNC(=O)c4ccc5c(c4)[C@](C)(C#N)COC5)cc3n2)c1 [Compound 316] | 98% | 0.1 to 0.5 µM | > 1000 nM | 92% |
| CN1CCC(NC(=O)c2cccc(-c3ccc4cnc(CNC(=O)c5ccc6c(c5)[C@](C)(C#N)COC6)cc4n3)c2)CC1 [Compound 317] | 100% | 0.1 to 0.5 µM | > 1000 nM | 96% |
| C[C@@]1(F)COCc2ccc(C(=O)NCc3cc4nc(-c5ccc(=O)n(CC(F)F)n5)ccc4cn3)cc21 [Compound 318] | 107% | 0.1 to 0.5 µM | 500 to 1000 nM | 55% |
| C[C@@]1(F)COCc2ccc(C(=O)NCc3cc4nc(-c5cncc(N6CCOCC6)n5)ccc4cn3)cc21 [Compound 319] | 104% | < 0.1 µM | 100 to 500 nM | 92% |
| CC(=O)N1CCOc2c(-c3ccc4cnc(CNC(=O)c5ccc6c(c5)[C@](C)(C#N)COC6)cc4n3)cccc21 [Compound 320] | 107% | 0.1 to 0.5 µM | 500 to 1000 nM | 80% |
| C[C@@]1(C#N)COCc2ccc(C(=O)NCc3cc4nc(-c5ccnc(N6CC7CC7C6)n5)ccc4cn3)cc21 (stereo partly drawn) [Compound 321] | 105% | < 0.1 µM | 100 to 500 nM | 95% |
| C[C@H]1CN(c2nccc(-c3ccc4cnc(CNC(=O)c5ccc6c(c5)[C@](C)(C#N)COC6)cc4n3)n2)CCO1 [Compound 322] | 106% | < 0.1 µM | < 100 nM | 97% |
| COCCNC(=O)c1ccc(-c2ccc3cnc(CNC(=O)c4ccc5c(c4)[C@](C)(C#N)COC5)cc3n2)cc1 [Compound 323] | 108% | 0.1 to 0.5 µM | 500 to 1000 nM | 76% |
| CNC(=O)c1ccc(-c2ccc3cnc(CNC(=O)c4ccc5c(c4)[C@](C)(C#N)COC5)cc3n2)cc1 [Compound 324] | 105% | 0.1 to 0.5 µM | 500 to 1000 nM | 81% |
| C[C@@]1(F)COCc2ccc(C(=O)NCc3cc4nc(-c5cncc(C6CC6)n5)ccc4cn3)cc21 [Compound 325] | 101% | < 0.1 µM | 100 to 500 nM | 90% |
| CN(C)c1nccc(N2CCc3cnc(CNC(=O)c4ccc5c(c4)[C@](C)(C#N)COC5)cc3C2)n1 [Compound 326] | 97% | 0.1 to 0.5 µM | 500 to 1000 nM | 70% |
| C[C@@]1(C#N)COCc2ccc(C(=O)NCc3cc4c(cn3)CCN(c3ccnc(C5CC5)n3)C4)cc21 [Compound 327] | 89% | 0.1 to 0.5 µM | > 1000 nM | 48% |
| C[C@@]1(C#N)COCc2ccc(C(=O)NCc3cc4c(cn3)CCN(c3cncc(C5CC5)n3)C4)cc21 [Compound 328] | 99% | < 0.1 µM | 500 to 1000 nM | 81% |
| COc1nn(C)cc1-c1ccc2nnc(CNC(=O)c3ccc4c(c3)[C@](C)(C#N)COC4)cc2c1 [Compound 329] | 100% | < 0.1 µM | 100 to 500 nM | 86% |
| C[C@@]1(C#N)COCc2ccc(C(=O)NCc3cc4c(cn3)CCN(c3ccnc(N5CCOCC5)n3)C4)cc21 [Compound 330] | 93% | 0.1 to 0.5 µM | 500 to 1000 nM | 64% |
| C[C@@]1(C#N)COCc2ccc(C(=O)NCc3cc4c(cn3)CCN(c3ccnc(N5CCCC5)n3)C4)cc21 [Compound 331] | 97% | 0.1 to 0.5 µM | 500 to 1000 nM | 73% |
| C[C@@]1(C#N)COCc2ccc(C(=O)NCc3cc4c(cn3)CCN(c3ccnc(N5CCC5)n3)C4)cc21 [Compound 332] | 96% | 0.1 to 0.5 µM | 500 to 1000 nM | 67% |
| COc1nn(C)cc1-c1ccc2cnc(CNC(=O)c3cc(F)c4c(c3)[C@](C)(F)COC4)cc2n1 [Compound 333] | 100% | < 0.1 µM | 500 to 1000 nM | 79% |
| COc1nn(C)cc1-c1ccc2cnc(CNC(=O)c3cnc4c(c3)[C@](C)(F)COC4)cc2n1 [Compound 334] | 96% | 0.1 to 0.5 µM | 500 to 1000 nM | 61% |
| C[C@@]1(C#N)COCc2ccc(C(=O)NCc3cc4cc(-c5nccc(N6CCC6)n5)ccc4nn3)cc21 [Compound 335] | 101% | < 0.1 µM | 100 to 500 nM | 84% |
| C[C@@]1(C#N)COCc2ccc(C(=O)NCc3cc4cc(-c5ccnc(N6CCC6)n5)ccc4nn3)cc21 [Compound 336] | 99% | < 0.1 µM | 100 to 500 nM | 92% |
